Square brackets hold non-standard residues; d marks the D form. Ends that are not written are not given here. Peptide text beside a SMILES is read from it.
How the values were obtained:
E. coli ATCC25922 = test: Salt, serum, acid and alkaline sensitivity; type: cell-based; conditions: for MIC, Control: absence of physiological salts, serum, acid and alkaline; for MIC, FeCl3: in presence of 4μM FeCl3 (final); for MIC, MgCl2: in presence of 1 mM MgCl2; for MIC, KCl: in presence of 4.5 mM KCl (final); for MIC, NaCl: in presence of 150 mM NaCl (final); for MIC, PH=2: peptide incubated at pH=2 for 4 h prior to MIC determination; for MIC, PH=4: peptide incubated at pH=4 for 4 h prior to MIC determination; for MIC, PH=10: peptide incubated at pH=10 for 4 h prior to MIC determination; for MIC, PH=12: peptide incubated at pH=12 for 4 h prior to MIC determination
Beneficial strains = test: Geometric mean of MICs; type: cell-based; conditions: geometric mean of MICs against beneficial strains; >128 counted as 256 μM
IPEC-J2 cells = test: Cytotoxicity MTT assay; type: cell-based, porcine; conditions: 24 h, 37°C, 128 μM peptide, three independent assays
E. coli = test: Geometric mean of MICs, selectivity and targeting indices; type: cell-based; conditions: for TI Pathogenic strains (targeting index): GM(E. coli)/GM(other pathogenic strains); for TI Pathogenic strains (targeting index) / TI Beneficial strains (targeting index): smaller = greater specificity; for SI E. coli (selectivity index): MHC/GM (E. coli), MHC >128 counted as 256 μM, larger = greater cell selectivity; for TI All (TIall, targeting index): all strains, smaller = greater specificity for E. coli; for GM E. coli: geometric mean of MICs against the 6 E. coli strains, >128 counted as 256 μM; for TI Beneficial strains (targeting index): GM(E. coli)/GM(beneficial strains)
HEK293T cells = test: Cytotoxicity MTT assay; type: cell-based, human; conditions: 24 h, 37°C, 128 μM peptide, three independent assays

Compound: WIKIWKKIIKKWKK [Peptide 10]
- MIC, Control (E. coli ATCC25922): 8 µM
- MIC, FeCl3 (E. coli ATCC25922): 8 µM
- MIC, MgCl2 (E. coli ATCC25922): 64 µM
- MIC, KCl (E. coli ATCC25922): 8 µM
- MIC, NaCl (E. coli ATCC25922): 32 µM
- MIC, PH=2 (E. coli ATCC25922): 8 µM
- MIC, PH=4 (E. coli ATCC25922): 8 µM
- MIC, PH=10 (E. coli ATCC25922): 8 µM
- MIC, PH=12 (E. coli ATCC25922): 8 µM
- GM Beneficial strains (Beneficial strains): 181.019 µM
- cells killed (IPEC-J2 cells): ~63%
- TI Pathogenic strains (targeting index) (E. coli): 0.707
- SI E. coli (selectivity index) (E. coli): 40.315
- TI All (TIall, targeting index) (E. coli): 0.376
- GM E. coli (E. coli): 6.350 µM
- cells killed (HEK293T cells): approximately 99%

Compound: CC[C@H](C)[C@H](NC(=O)CNC(=O)[C@H]1CCCN1C(=O)[C@H](CCCCN)NC(=O)[C@H](Cc1c[nH]c2ccccc12)NC(=O)[C@@H](NC(=O)[C@H](CCCCN)NC(=O)[C@H](CCCCN)NC(=O)[C@H](Cc1c[nH]c2ccccc12)NC(=O)CNC(=O)CNC(=O)CNC(=O)[C@H](C)NC(=O)[C@H](CO)NC(=O)[C@H](CC(C)C)NC(=O)[C@H](CCCNC(=N)N)NC(=O)[C@@H](NC(=O)[C@H](CCCNC(=N)N)NC(=O)[C@@H]1CCCN1C(=O)[C@H](CCCNC(=N)N)NC(=O)[C@H](CCCCN)NC(=O)[C@@H](N)CCC(N)=O)C(C)C)[C@@H](C)CC)C(=O)N[C@@H](CCCCN)C(=O)N[C@@H](CCCCN)C(=O)N[C@@H](Cc1c[nH]c2ccccc12)C(=O)N[C@H](C(=O)N[C@@H](CCCCN)C(=O)O)[C@@H](C)CC [Peptide 12] (H-QKRPRVRLSAGGGWKKIWK[dP]GIKKWIK-OH; N-terminus and C-terminus assumed)
- MIC, Control (E. coli ATCC25922): 8 µM
- MIC, FeCl3 (E. coli ATCC25922): 8 µM
- MIC, MgCl2 (E. coli ATCC25922): 32 µM
- MIC, KCl (E. coli ATCC25922): 8 µM
- MIC, NaCl (E. coli ATCC25922): >64 µM
- MIC, PH=2 (E. coli ATCC25922): 16 µM
- MIC, PH=4 (E. coli ATCC25922): 8 µM
- MIC, PH=10 (E. coli ATCC25922): 16 µM
- MIC, PH=12 (E. coli ATCC25922): 16 µM
- GM Beneficial strains (Beneficial strains): 256.000 µM
- TI Beneficial strains (targeting index) (E. coli): 0.031
- TI Pathogenic strains (targeting index) (E. coli): 0.039
- SI E. coli (selectivity index) (E. coli): 32.000
- TI All (TIall, targeting index) (E. coli): 0.035
- GM E. coli (E. coli): 8.000 µM

Compound: CC[C@H](C)[C@H](NC(=O)CNC(=O)[C@H]1CCCN1C(=O)[C@H](CCCCN)NC(=O)[C@H](Cc1c[nH]c2ccccc12)NC(=O)[C@@H](NC(=O)[C@H](CCCCN)NC(=O)[C@H](CCCCN)NC(=O)[C@H](Cc1c[nH]c2ccccc12)NC(=O)[C@@H](NC(=O)[C@@H](N)CCCCN)[C@@H](C)CC)[C@@H](C)CC)C(=O)N[C@@H](CCCCN)C(=O)N[C@@H](CCCCN)C(=O)N[C@@H](Cc1c[nH]c2ccccc12)C(=O)N[C@H](C(=O)N[C@@H](CCCCN)C(=O)N[C@@H](CCCCN)C(=O)N[C@@H](Cc1c[nH]c2ccccc12)C(=O)O)[C@@H](C)CC [Peptide 3] (H-KIWKKIWK[dP]GIKKWIKKW-OH; N-terminus and C-terminus assumed)
- MIC, Control (E. coli ATCC25922): 4 µM
- MIC, FeCl3 (E. coli ATCC25922): 4 µM
- MIC, MgCl2 (E. coli ATCC25922): 8 µM
- MIC, KCl (E. coli ATCC25922): 4 µM
- MIC, NaCl (E. coli ATCC25922): 16 µM
- MIC, PH=2 (E. coli ATCC25922): 4 µM
- MIC, PH=4 (E. coli ATCC25922): 4 µM
- MIC, PH=10 (E. coli ATCC25922): 4 µM
- MIC, PH=12 (E. coli ATCC25922): 4 µM
- GM Beneficial strains (Beneficial strains): 256.000 µM
- TI Beneficial strains (targeting index) (E. coli): 0.011
- TI Pathogenic strains (targeting index) (E. coli): 0.079
- SI E. coli (selectivity index) (E. coli): 90.523
- GM E. coli (E. coli): 2.828 µM

Compound: QKRPRVRLSA [Peptide 14, reference compound]
- MIC, Control (E. coli ATCC25922): 64 µM
- MIC, FeCl3 (E. coli ATCC25922): >64 µM
- MIC, MgCl2 (E. coli ATCC25922): >64 µM
- MIC, KCl (E. coli ATCC25922): >64 µM
- MIC, NaCl (E. coli ATCC25922): >64 µM
- MIC, PH=2 (E. coli ATCC25922): 64 µM
- MIC, PH=4 (E. coli ATCC25922): >64 µM
- MIC, PH=10 (E. coli ATCC25922): >64 µM
- MIC, PH=12 (E. coli ATCC25922): 64 µM
- GM Beneficial strains (Beneficial strains): 256.000 µM
- TI Beneficial strains (targeting index) (E. coli): 0.397
- TI Pathogenic strains (targeting index) (E. coli): 0.397
- SI E. coli (selectivity index) (E. coli): 2.520
- TI All (TIall, targeting index) (E. coli): 0.397
- GM E. coli (E. coli): 101.594 µM

Compound: CC[C@H](C)[C@H](NC(=O)CNC(=O)[C@H]1CCCN1C(=O)[C@H](CCCCN)NC(=O)[C@H](Cc1c[nH]c2ccccc12)NC(=O)[C@@H](NC(=O)[C@H](CCCCN)NC(=O)[C@@H](NC(=O)[C@@H](N)Cc1c[nH]c2ccccc12)[C@@H](C)CC)[C@@H](C)CC)C(=O)N[C@@H](CCCCN)C(=O)N[C@@H](CCCCN)C(=O)N[C@@H](Cc1c[nH]c2ccccc12)C(=O)N[C@@H](CCCCN)C(=O)N[C@@H](CCCCN)C(=O)O [Peptide 9] (H-WIKIWK[dP]GIKKWKK-OH; N-terminus and C-terminus assumed)
- MIC, Control (E. coli ATCC25922): 16 µM
- MIC, FeCl3 (E. coli ATCC25922): 16 µM
- MIC, MgCl2 (E. coli ATCC25922): 64 µM
- MIC, KCl (E. coli ATCC25922): 32 µM
- MIC, NaCl (E. coli ATCC25922): >64 µM
- MIC, PH=2 (E. coli ATCC25922): 32 µM
- MIC, PH=4 (E. coli ATCC25922): 32 µM
- MIC, PH=10 (E. coli ATCC25922): 16 µM
- MIC, PH=12 (E. coli ATCC25922): 16 µM
- GM Beneficial strains (Beneficial strains): 161.270 µM
- TI Beneficial strains (targeting index) (E. coli): 0.111
- TI Pathogenic strains (targeting index) (E. coli): 0.088
- SI E. coli (selectivity index) (E. coli): 14.255
- TI All (TIall, targeting index) (E. coli): 0.100
- GM E. coli (E. coli): 17.959 µM
